Experimental data published in patent US20250092016A1, “COMPOUNDS AND COMPOSITIONS FOR THE TREATMENT OF CORONAVIRAL RELATED DISEASES” (priority 2021, published 2025).

Target: SARS-CoV-2 main protease (M^pro) (Severe acute respiratory syndrome coronavirus 2, UniProt P0DTD1)
Test: Rapid-Fire MS Biochemical Assay measuring Mpro activity (5 nM Mpro)
Settings: Table 1B, Mpro inhibition, 5 μM substrate peptide, 120 min, read-out: Rapid-Fire Assay IC50

SMILES	IC50 [nM]
N#C[C@H]1CN(c2cc(OC(F)F)ccc2F)C(=O)N1c1cncc2ccccc12 (single isomer, unassigned) [Compound 59a]	20 to 200
CC(=O)N1CC(N2C[C@H](C#N)N(c3cncc4ccccc34)C2=O)C1 (single isomer, unassigned) [Compound 134a]	200 to 1000
N#Cc1ccc(C(F)(F)F)cc1N1C[C@@H](C#N)N(c2cncc3ccccc23)C1=O (single isomer, unassigned) [Compound 90b]	> 1000
COc1cc(Cl)ccc1N1C[C@H](C#N)N(c2cncc3ccccc23)C1=O (single isomer, unassigned) [Compound 103a]	< 20
COc1cc(Cl)cnc1N1C[C@@H](C#N)N(c2cncc3ccccc23)C1=O (single isomer, unassigned) [Compound 58b]	> 1000
N#C[C@@H]1CN(c2cccc(F)c2)C(=O)N1c1cncc2ccccc12 (single isomer, unassigned) [Compound 76b]	> 1000
CC(C)(C)CN1C[C@H](C#N)N(c2cncc3ccccc23)C1=O (single isomer, unassigned) [Compound 140a]	20 to 200
Cc1ncc(N2C[C@H](C#N)N(c3cncc4ccccc34)C2=O)cn1 (single isomer, unassigned) [Compound 79a]	20 to 200
N#C[C@H]1CN(c2cccc(Cl)c2)C(=O)N1c1cncc2ccc(C(=O)O)cc12 (single isomer, unassigned) [Compound 33a]	< 20
N#Cc1ccc(N2C[C@@H](C#N)N(c3cncc4ccccc34)C2=O)cc1 (single isomer, unassigned) [Compound 50b]	> 1000
Cn1ccc(N2C[C@@H](C#N)N(c3cncc4ccccc34)C2=O)cc1=O (single isomer, unassigned) [Compound 67b]	> 1000
N#C[C@H]1CN(c2ccc(F)cc2F)C(=O)N1c1cncc2ccccc12 (single isomer, unassigned) [Compound 66a]	< 20
CC(C)(O)c1ccc2cncc(N3C(=O)N(c4cccc(Cl)c4)CC3C#N)c2c1 (stereo not drawn) [Compound 34, 1-(3-chlorophenyl)-3-(6-(2-hydroxypropan-2-yl)isoquinolin-4-yl)-2-oxoimidazolidine-4-carbonitrile]	< 20
COc1nc(C(F)(F)F)ccc1N1C[C@H](C#N)N(c2cncc3ccccc23)C1=O (single isomer, unassigned) [Compound 95a]	< 20
Cc1cc(N2C[C@H](C#N)N(c3cncc4ccccc34)C2=O)cc(C)n1 (single isomer, unassigned) [Compound 102a]	< 20
Cc1cc(Cl)cnc1N1CC(C#N)N(c2cncc3ccccc23)C1=O (racemic) [Compound 80, 1-(5-chloro-3-methylpyridin-2-yl)-3-(isoquinolin-4-yl)-2-oxoimidazolidine-4-carbonitrile]	20 to 200
N#C[C@@H]1CN(c2cncc(C(F)(F)F)c2)C(=O)N1c1cncc2ccccc12 (single isomer, unassigned) [Compound 104b]	> 1000
Cc1ccc(C(F)(F)F)cc1N1C[C@@H](C#N)N(c2cncc3ccccc23)C1=O (single isomer, unassigned) [Compound 24b]	> 1000
Cc1cnc(C(F)(F)F)cc1N1C[C@@H](C#N)N(c2cncc3ccccc23)C1=O (single isomer, unassigned) [Compound 70b]	> 1000
N#C[C@H]1CN(c2cnc(C(F)(F)F)cn2)C(=O)N1c1cncc2ccccc12 (single isomer, unassigned) [Compound 32a]	< 20
N#C[C@H]1CN(c2cnnc(C(F)(F)F)c2)C(=O)N1c1cncc2ccccc12 (single isomer, unassigned) [Compound 13a]	< 20
Cc1cnc(C(F)(F)F)cc1N1C[C@H](C#N)N(c2cncc3ccccc23)C1=O (single isomer, unassigned) [Compound 70a]	< 20
Cc1ncccc1N1CC(C#N)N(c2cncc3ccccc23)C1=O (racemic) [Compound 74, 3-(isoquinolin-4-yl)-1-(2-methylpyridin-3-yl)-2-oxoimidazolidine-4-carbonitrile]	200 to 1000
C[C@H]1[C@H](C#N)N(c2cncc3ccccc23)C(=O)N1c1cccc(Cl)c1 (single isomer, unassigned) [Compound 43a]	< 20
CC(C)(O)c1cccc(N2C[C@@H](C#N)N(c3cncc4ccccc34)C2=O)c1 (single isomer, unassigned) [Compound 69b]	> 1000
Cc1ccc(F)cc1N1C[C@H](C#N)N(c2cncc3ccccc23)C1=O (single isomer, unassigned) [Compound 21a]	< 20
C[C@@]1(C#N)CN(c2cccc(Cl)c2)C(=O)N1c1cncc2ccccc12 (single isomer, unassigned) [Compound 40b]	> 1000

SMILES	IC50 [nM]
N#Cc1ccc(N2C[C@H](C#N)N(c3cncc4ccccc34)C2=O)cc1 (single isomer, unassigned) [Compound 50a]	< 20
N#C[C@H]1CN(c2ccc(F)c(Cl)c2)C(=O)N1c1cncc2ccccc12 (single isomer, unassigned) [Compound 87a]	< 20
Cc1ccc(C#N)c(N2CC(C#N)N(c3cncc4ccccc34)C2=O)c1 (racemic) [Compound 116, 1-(2-cyano-5-methylphenyl)-3-(isoquinolin-4-yl)-2-oxoimidazolidine-4-carbonitrile]	< 20
N#C[C@@H]1CN(c2cnnc(C(F)(F)F)c2)C(=O)N1c1cncc2ccccc12 (single isomer, unassigned) [Compound 13b]	> 1000
N#CC1CN(c2ccc(=O)[nH]c2)C(=O)N1c1cncc2ccccc12 (racemic) [Compound 113, 3-(isoquinolin-4-yl)-2-oxo-1-(6-oxo-1,6-dihydropyridin-3-yl)imidazolidine-4-carbonitrile]	> 1000
COc1cc(C(F)(F)F)ccc1N1CC(C#N)N(c2cncc3ccccc23)C1=O (racemic) [Compound 12, 3-(isoquinolin-4-yl)-1-(2-methoxy-4-(trifluoromethyl)phenyl)-2-oxoimidazolidine-4-carbonitrile]	20 to 200
N#CC1CN(c2cc(F)cc(F)c2)C(=O)N1c1cncc2ccccc12 (racemic) [Compound 110, 1-(3,5-difluorophenyl)-3-(isoquinolin-4-yl)-2-oxoimidazolidine-4-carbonitrile]	< 20
N#C[C@H]1CN([C@H]2C[C@H](C3CC3)C2)C(=O)N1c1cncc2ccccc12 [Compound 124b, (R)-1-((1r,3R)-3-cyclopropylcyclobutyl)-3-(isoquinolin-4-yl)-2-oxoimidazolidine-4-carbonitrile]	< 20
N#CC1CN(C23CC(F)(C2)C3)C(=O)N1c1cncc2ccccc12 (racemic) [Compound 139, 1-(3-fluorobicyclo[1.1.1]pentan-1-yl)-3-(isoquinolin-4-yl)-2-oxoimidazolidine-4-carbonitrile]	20 to 200
N#C[C@@H]1CN(C2CCC(F)(F)CC2)C(=O)N1c1cncc2ccccc12 (single isomer, unassigned) [Compound 138b]	> 1000
N#C[C@H]1CN(c2cccc(C(F)(F)F)n2)C(=O)N1c1cncc2ccccc12 (single isomer, unassigned) [Compound 51a]	20 to 200
COc1ccc(C(F)(F)F)nc1N1C[C@@H](C#N)N(c2cncc3ccccc23)C1=O (single isomer, unassigned) [Compound 47b]	> 1000
N#CC1CN(c2cccc(OC(F)F)c2)C(=O)N1c1cncc2ccccc12 (racemic) [Compound 89, 1-(3-(difluoromethoxy)phenyl)-3-(isoquinolin-4-yl)-2-oxoimidazolidine-4-carbonitrile]	200 to 1000
CS(=O)(=O)c1ccc2cncc(N3C(=O)N(c4cccc(Cl)c4)C[C@@H]3C#N)c2c1 (single isomer, unassigned) [Compound 37a]	< 20
Cc1ncc(N2C[C@@H](C#N)N(c3cncc4ccccc34)C2=O)cn1 (single isomer, unassigned) [Compound 79b]	> 1000
N#Cc1cc(Cl)ccc1N1CC(C#N)N(c2cncc3ccccc23)C1=O (racemic) [Compound 60, 1-(4-chloro-2-cyanophenyl)-3-(isoquinolin-4-yl)-2-oxoimidazolidine-4-carbonitrile]	20 to 200
N#C[C@@H]1CN(c2ccc(F)nc2)C(=O)N1c1cncc2ccccc12 (single isomer, unassigned) [Compound 55b]	> 1000
N#C[C@H]1CN([C@@H]2CCN(CCO)C2)C(=O)N1c1cncc2ccccc12 (single isomer, unassigned) [Compound 46a]	> 1000
N#C[C@@H]1CN([C@@H]2CCN(CCC(F)(F)F)C2)C(=O)N1c1cncc2ccccc12 (single isomer, unassigned) [Compound 26b]	> 1000
Cc1cc(N2C[C@@H](C#N)N(c3cncc4ccccc34)C2=O)ccn1 (single isomer, unassigned) [Compound 44b]	> 1000
Cc1cc(Cl)cnc1N1C[C@@H](C#N)N(c2cncc3ccccc23)C1=O (single isomer, unassigned) [Compound 80b]	> 1000
COc1cc(C#N)ccc1N1C[C@@H](C#N)N(c2cncc3ccccc23)C1=O (single isomer, unassigned) [Compound 19b]	> 1000
COc1cc(Cl)cnc1N1C[C@H](C#N)N(c2cncc3ccccc23)C1=O (single isomer, unassigned) [Compound 58a]	20 to 200
N#C[C@H]1CN(C2CN(S(=O)(=O)C(F)(F)F)C2)C(=O)N1c1cncc2ccccc12 (single isomer, unassigned) [Compound 129a]	20 to 200
N#C[C@@H]1CN(c2ccc(OC(F)F)cc2)C(=O)N1c1cncc2ccccc12 (single isomer, unassigned) [Compound 71b]	> 1000
N#CC1CN(c2ccc(F)c(Cl)c2)C(=O)N1c1cncc2ccccc12 (racemic) [Compound 87, 1-(3-chloro-4-fluorophenyl)-3-(isoquinolin-4-yl)-2-oxoimidazolidine-4-carbonitrile]	< 20
COc1ccc(N2C[C@H](C#N)N(c3cncc4ccccc34)C2=O)cn1 (single isomer, unassigned) [Compound 112a]	< 20
